Laboratory results as given in US20230390396A1, “COMPOSITION CONTAINING 5-AMINOLEVULINIC ACID HYDROCHLORIDE” (priority 2020, published 2023).

Experiments:
[1] = system: patient's brain tumor area; assay: Fluorescence visualization of brain tumor after drinking 5-aminolevulinic acid hydrochloride; assay type: in vivo, human; details: 19 mg/kg oral, 3 hours before induction of anesthesia, operation 6 hours after drinking; FIG. 1
[2] = Antioxidative activity (DPPH radical scavenging, modified Blois method); details: 2 mL sample + 2 mL 0.2 mM DPPH, 30 minutes, absorbance at 517 nm
Description: Radical scavenging activity was used using the cosmetic composition for acne skin improvement according to the example as a sample.
The antioxidative activity (electron donation ability, EDA %) of a sample was measured by modifying the Blois method. 2 mL of the sample was mixed with 2 mL of a 0.2 mM DPPH(1,1-diphenyl-2-picryl hydrazyl) solution, and then allowed to stand for 30 minutes, followed by measuring an absorbance at 517 nm.
The radical scavenging activity was expressed as the rate of decrease in absorbance between the sample-added group and the non-added group. The radical scavenging activity was calculated according to the following equation, and results are summarized in [Table 2] below. As a sample for the control, BHT (synthetic antioxidant) was used.
Radical scavenging activity (%)=(1−Absorbance of sample-added group/Absorbance of non-added group)×100

SMILES | Fluorescence of patient's brain tumor area at surgery [1] | Radical scavenging activity [2] [%]
Cl.NCC(=O)CCC(=O)O [5-aminolevulinic acid hydrochloride] | emitting a fluorescent color | –
Cc1cc(C(C)(C)C)c(O)c(C(C)(C)C)c1 [Control, BHT] | – | 55.3 ± 0.45
